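Briefly, cells in 96-well plates were exposed to five compound concentrations for 48 h, and endpoints were estimated by linear interpolation. Here, GI50 denotes the concentration required for 50% inhibition of growth. TGI denotes the concentration required for complete inhibition of growth.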
Columns and labels:
Assay in all cases: DTP human tumour cell line panel, 48 h
A498 renal = test system: A498 renal
UACC-62 melanoma = test system: UACC-62 melanoma
SK-MEL-5 melanoma = test system: SK-MEL-5 melanoma
IGROV1 ovarian = test system: IGROV1 ovarian
RXF 393 renal = test system: RXF 393 renal
DU-145 prostate = test system: DU-145 prostate
A549 NSCLC = test system: A549 NSCLC
SK-OV-3 ovarian = test system: SK-OV-3 ovarian
MALME-3M melanoma = test system: MALME-3M melanoma
NCI-H23 lung = test system: NCI-H23 lung

| Compound | TGI (A498 renal) [µM] | TGI (UACC-62 melanoma) [µM] | TGI (SK-MEL-5 melanoma) [µM] | TGI (IGROV1 ovarian) [µM] | TGI (RXF 393 renal) [µM] | TGI (DU-145 prostate) [µM] | TGI (A549 NSCLC) [µM] | TGI (SK-OV-3 ovarian) [µM] | TGI (MALME-3M melanoma) [µM] | TGI (NCI-H23 lung) [µM] | GI50 (A498 renal) [µM] | GI50 (UACC-62 melanoma) [µM] | GI50 (SK-MEL-5 melanoma) [µM] | GI50 (IGROV1 ovarian) [µM] | GI50 (RXF 393 renal) [µM] | GI50 (DU-145 prostate) [µM] | GI50 (A549 NSCLC) [µM] | GI50 (SK-OV-3 ovarian) [µM] | GI50 (MALME-3M melanoma) [µM] | GI50 (NCI-H23 lung) [µM] |
| --- | --- | --- | --- | --- | --- | --- | --- | --- | --- | --- | --- | --- | --- | --- | --- | --- | --- | --- | --- | --- |
| CC(C)CCC[C@@H](C)[C@H]1CC[C@H]2[C@@H]3CC[C@H]4C[C@@H](CCC=C(c5cc(Cl)c(O)c(C(=O)O)c5)c5cc(Cl)c(O)c(C(=O)O)c5)CC[C@]4(C)[C@H]3CC[C@]12C | > 100 | > 100 | > 100 | > 100 | > 100 | > 100 | > 100 | > 100 | > 100 | > 100 | – | – | – | – | – | – | – | – | – | – |
| C=CCNc1nc2c(s1)C(=O)c1ccccc1C2=O | 34 | 9.37 | 3.1 | 38.3 | 35.4 | 35.6 | 19.3 | 31.7 | 25.6 | 21.8 | – | – | – | – | – | – | – | – | – | – |
| COC(=O)C1C(O)CCC2CN3CCc4c([nH]c5ccccc45)C3CC21 (stereo not drawn) | > 100 | > 100 | > 100 | > 100 | > 100 | > 100 | > 100 | > 100 | > 100 | > 100 | – | – | – | – | – | – | – | – | – | – |
| COc1ccc(/C=C/C(=O)/C=C/c2cc3ccccc3[nH]c2=O)cc1 | 18.8 | 9.41 | 25.1 | 5.1 | 11.9 | 10.3 | 12.6 | 26.7 | 35.6 | 19.8 | 5.73 | 2.43 | 11 | 2.21 | 3.31 | 3.36 | 3.16 | 9.22 | 9.17 | 4.31 |
| COc1ccc(-c2ccncc2)cc1C(N)=O | > 25 | > 25 | > 25 | > 25 | > 25 | > 25 | > 25 | > 25 | > 25 | > 25 | > 22.8 | > 25 | > 25 | > 25 | > 25 | > 25 | > 25 | > 25 | > 25 | > 25 |
| O=[N+]([O-])c1cc(Cl)c2[nH]c3c(Cl)cc([N+](=O)[O-])cc3c2c1 | 1.36 | > 100 | 0.651 | > 100 | 18.8 | > 100 | 2.9 | 5.8 | 4.04 | 28.2 | 0.15 | 0.247 | 0.129 | 0.471 | 0.461 | 0.508 | 0.302 | 0.468 | 0.265 | 0.213 |
| COc1ccc2c(=O)cc(-c3ccccc3)[nH]c2c1 | 5.32 | > 100 | 7.4 | > 100 | – | > 53.1 | – | > 30.8 | > 100 | > 100 | 0.263 | 0.431 | 0.323 | 0.578 | 0.762 | 1.24 | 0.67 | 1.17 | 0.684 | 1.25 |
| CCc1ccc(NC(=O)NC(=O)c2ccccc2[N+](=O)[O-])cc1Oc1ncc(Cl)cn1 | 9.1 | > 100 | 0.0327 | > 100 | 73.4 | > 100 | > 100 | > 100 | > 100 | > 100 | – | – | – | – | – | – | – | – | – | – |
| COc1cc(OC)c(C(=O)/C=C/c2cc3c(cc2OCc2ccccc2)OC(C)(C)CC3)cc1CC=C(C)C | 21.8 | 10.5 | 6.53 | > 25 | 17.1 | > 25 | > 25 | > 25 | 12.6 | > 25 | 5.42 | 3.8 | 3.33 | 15 | 5.91 | 5.95 | 8.92 | 7.42 | 4.89 | 6.77 |
| CN(CCCCCl)P(=O)(OCCS(=O)(=O)CC(NC(=O)CCC(N)C(=O)O)C(=O)NC(C(=O)O)c1ccccc1)OCC1OC(n2ccc(N)nc2=O)C(F)(F)C1O (stereo not drawn) | > 100 | > 65.4 | > 100 | 25.9 | > 45.1 | 25.9 | > 100 | > 100 | > 100 | 16.8 | 0.943 | 0.377 | 0.484 | 0.0581 | 0.744 | 0.0359 | 0.125 | 0.784 | 3.06 | 0.0483 |
| CCCCCCCCOC(=O)CC[C@@H](C)[C@H]1CC[C@H]2[C@@H]3[C@H](OC(=O)CCN)C[C@@H]4C[C@H](OC(=O)CCN)CC[C@]4(C)[C@H]3C[C@H](OC(=O)CCN)[C@]12C | 48.1 | 12.7 | 51.7 | 9.1 | 29 | 9.7 | 27.1 | 27 | 5.86 | 29.9 | 23.8 | 3.45 | 19.4 | 3.24 | 9.66 | 3.4 | 10.9 | 10.5 | 2.58 | 10 |

From PubChem BioAssay (NCI)
